Like-named read-outs stand apart in the source and are kept apart here.
What was measured:
GPC3 [1] = target: T1, GPC3 (Homo sapiens, UniProt P51654); assay: Binding kinetics of top minimers (Ka, Kd, KD)
Source text: (§1) The best minimer, GRX46, as well as combinations of variants with top activities were selected for further evaluation (Table 6).

GPC3 [2] = target: T1, GPC3; assay: Binding activity of minimers incl. refolding and freeze/thaw tests
Source text: When the lineal GRX8 sequence is refolded, the binding activity of GRX8 improves.
as §1

GPC3 [3] = target: T1, GPC3; assay: GPC3 binding via flow cytometry using GPC3+ HEK293 cells; parameters: expressed in transfected cells; host or cells: engineered HEK293 cells overexpressing GPC3; conditions: for Kd: flow cytometry using GPC3+ HEK293 cells; for GPC3 binding activity (MFI): GPC3^+ HEK293 cells
Procedure: (§2) Two independent SELEX selections were carried to select clones that specifically bind to GPC3. Seven to nine rounds of nitrocellullose filter SELEX (Jhaveri et al., In vitro selection of RNA aptamers to a protein target by filter immobilization. Curr Protoc Nucleic Acid Chem. 2001, Chapter 9: Unit 9.3. doi: 10.1002/0471142700.nc0903s00. PMID: 18428881) were preformed using recombinant GPC3 protein. DNA clones from the final rounds of SELEX were sent for next generation sequencing and the data were analyzed for abundance. The highest abundant sequences (clones) were made via chemical synthesis and used in screening. The clones were screened for GPC3 binding via flow cytometry using engineered HEK293 cells overexpressing GPC3 (GPC3+ HEK293).
Additional variants surrounding the core motif were made in which stem 2 (as depicted in FIG. 1) is extended by 1 or 2 additional base pairs (GRX1187 and GRX2101 respectively) or replaced with an alternative stem and loop sequence (GRX958). Additionally, a construct was designed in which stem 2 is closed with a 4 base loop and stem 1 is open creating a new 5′ and 3′ end, GRX2102. […] (Table 7)

GPC3^− HEK293 cells = assay: Flow cytometry binding control with GPC3− HEK293 cells
Procedure: as §2
(§3) Binding of aptamer variants to GPC3 was tested with melting curve analysis (thermofluorimetric analysis). The control of experiment was carried out similarly with GPC3^− HEK293 cells.

Hep3B xenograft [4] = test system: Hep3B xenograft
[5] = target: T2, endogenously expressed GPC3 (Homo sapiens, UniProt P51654); assay: Binding to cancer cells endogenously expressing GPC3 (Hep3B, HepG2, NCI-H446, Huh7); conditions: data not shown; for need of refolding for maximal activity: binding to Hep3B cells
T2 construct: endogenously expressed GPC3 on different cancer cells; endogenous in cells; host or cells: Hep3B, HepG2, NCI-H446, Huh7
Source text: Human hepatocellular Carcinoma cells HepG2 and Hep 3B overexpressing GPC3 were used to test the affinity of the selected positive clones. The binding studies indicate that several selected aptamer candidates (Table 3) from both libraries can bind human hepatocellular Carcinoma cells with high affinity.
A pool of partial randomization sequences from GRX8 was created and selected by cell-SELEX using GPC3^+ HEK293 cells. Those variants comprise various changes to the structural elements of GRX8, including changes to the external loop, stack, helix, hairpin loop and stem, etc. The clones were further screened with Hep3B cells and minimized based on original structure. The minimer #Min9 was further randomly mutagenized for sequence changes that can improve the binding affinity to GPC3. Another minimer variant (ID No.: GRX46)
with increased activity was further tested.

Hep3B xenograft [6] = test system: Hep3B xenograft; remark: listed apart in the source
Procedure: For each group, mice were treated with vehicle, CpG7909, or GRX51 once a day (QD) for 7 days.
At the end of the study, tumor tissues from each group were analyzed for immune cell populations by FAC Sorting.

[7] = Melting curve analysis (thermofluorimetric analysis); format: physicochemical; conditions: compared to original clone F14, #Min4 and #Min5
Procedure: as §3

Hep3B xenograft [8] = assay: GRX26 in Hep3B xenograft mouse model; conditions: 28 Days; for Relative tumor volume growth (Day 28): vehicle = 1.00
Procedure: (SEQ ID NO.: 32) (ID NO. #GRX26). GRX26 was tested in Hep3B xenograft mouse model for its activity in vivo (Table 8).

Glypican-3 (GPC3) = Glypican-3 (GPC3) (UniProt P51654;P51654 P51654:25-358,P51654:359-554); assay: flow; GPC3+ HEK293 cells; conditions: tags: overexpressed in engineered HEK293 cells (GPC3+ HEK293)
[9] = 5 mg/kg, IP, QD/7Days, vehicle = 1.00

## CGUCAUCGGGUUGCUACCCAAGGACAAGAGUCGAUGACG (RNA aptamer, any chemical modification not given here, further chemistry not given here) [GRX8]
GPC3 [1]
  Ka: 61900 M⁻¹ s⁻¹
GPC3 [2]
  binding activity when the lineal sequence is refolded: improves
GPC3 [2]; FIG. 2
  binding affinity to exogenously expressed GPC3: high binding affinity
GPC3 [2]; frequent freeze/thaw
  stability of activity in freeze/thaw tests: stable and not affected by the frequent freeze/thaw tests

## CGUCAUCGGGUUGCUACCCAAGGCCCAGGAGGGCGAUGACG (listed as RNA, chemistry not given here) [GRX1187, 77]
GPC3 [3]
  Kd: 64.2 nM

## CGUCAUCGGGUUGCUACCCAAGGUCAAGAGACGAUGACG (listed as RNA, chemistry not fully specified) [GRX46]
GPC3 [1]
  Ka: 55400 M⁻¹ s⁻¹
GPC3 [2]; data not shown
  binding activity and refolding behavior relative to GRX8: similar, enhanced binding activity

## CATTATCGGGTTGCTACCCAAGGACAAGAGTCGATGATG (listed as DNA, chemistry not fully specified) [Min5, 30]
GPC3 [3]
  binding activity to GPC3^+ HEK293 cells compared to full sequence of clone F14: significantly increased
  GPC3 binding activity (MFI): 19484
GPC3^− HEK293 cells
  GPC3 binding activity (MFI): 946

## CGGGAGUCCUAGGAAGGACGGGUUGCUACCCAAGUCCCG (listed as RNA, chemistry not fully specified) [GRX2102, 79]
GPC3 [3]
  Kd: 26.9 nM

## CATTATCGGGTTGCTACCCGAGGACAAGAGTCGATGATG (listed as DNA, chemistry not fully specified) [Min6, 31]
GPC3 [3]
  GPC3 binding activity (MFI): 3619
GPC3^− HEK293 cells
  GPC3 binding activity (MFI): 507

## CGUCAUCGGGUUGCUACCCAAGGCACCAGGAGGUGCGAUGACG (listed as RNA, chemistry not given here) [GRX2101, 78]
GPC3 [3]
  Kd: 29.3 nM

## Keytruda: the PD-1R inhibitor Keytruda
Hep3B xenograft [4]; 10 mg/kg
  % of body weight loss: 3.66%
Hep3B xenograft [4]; 10 mg/kg once every 3 days i.p., 11 days
  reduction of tumor size: 18%
Hep3B xenograft [4]; 10 mg/kg, vehicle = 1.00
  Relative tumor volume growth (Day 11): 0.82

## GACUAGAUCGGGUUGCUACCCAAGCUCCGGUUCAGAUCGAUGGAGGAUCUAGUC (listed as RNA, chemistry not fully specified) [GRX958, 76]
GPC3 [3]
  Kd: 33.1 nM

## CGUCAUCGGGUUGCUACCCAAGGCCAGGAGGCGAUGACG (listed as RNA, chemistry not fully specified) [GRX49, 25]
GPC3 [3]
  Kd: 9 nM
[5]; Hep3B, HepG2, NCI-H446, Huh7
  binding to endogenously expressed GPC3 on cancer cells: selectively bind
[5]
  need of refolding for maximal activity: do not require refolding for maximal activity
GPC3 [1]
  Ka: 199000 M⁻¹ s⁻¹

## AAGCCATTATCGGGTTGCTACCCAAGGACAAGAGTCGATGATGCTT (listed as DNA, chemistry not fully specified) [Min4, 29]
GPC3 [3]
  binding activity to GPC3^+ HEK293 cells compared to full sequence of clone F14: significantly increased
  GPC3 binding activity (MFI): 23261
GPC3^− HEK293 cells
  GPC3 binding activity (MFI): 1072

## AAGCCATTACCGGGTTGCTACCCGAGGACAAGAGTCGATGATGCTT (listed as DNA, chemistry not fully specified) [Min3, 28]
GPC3 [3]
  GPC3 binding activity (MFI): 377
GPC3^− HEK293 cells
  GPC3 binding activity (MFI): 444

## CGUCAUCGGGUUGCUACCCAAGGUCAGGAGACGAUGACG (listed as RNA, chemistry not given here) [GRX8 with triple]
[5]
  need of refolding for maximal activity: do not require refolding for maximal activity
GPC3 [1]
  Ka: 112000 M⁻¹ s⁻¹

## AAGCATTACCGGGTTGCTACCCAAGGACAAGAGTCGATGATGCTT (listed as DNA, chemistry not fully specified) [Min2, 27]
GPC3 [3]
  binding activity to GPC3^+ HEK293 cells compared to full sequence of clone F14: significantly increased
  GPC3 binding activity (MFI): 16652
GPC3^− HEK293 cells
  GPC3 binding activity (MFI): 720

## TCGTCGTTTTGTCGTTTTGTCGTT [CpG]
Hep3B xenograft [6]; [9]
  Relative tumor volume growth (Day 7): 0.57
  Relative tumor volume growth (Day 18): 0.47
Hep3B xenograft [6]; 7-day on/7-day off daily dosing schedule
  final immune: tumor cell ratio relative to the vehicle control: 1.51±0.95

## GGCATCGGGTTGCTACCCAAGGACAAGAGTCGATGCC (listed as DNA, chemistry not fully specified) [Min11, 34]
[7]
  thermal stability: thermally more stable

## DM1-CGTCATCGGGTTGCTACCCAAGGACAAGAGTCGATGACG [GRX26]
Hep3B xenograft [8]; 2.5 mg/kg
  % of body weight loss: 10.67%
  Relative tumor volume growth (Day 28): 0.69
Hep3B xenograft [8]; 10 mg/kg, IP/QD
  % of body weight loss: 14.86%
  Relative tumor volume growth (Day 28): 0.46

## CGTCATCGGGTTGCTACCCAAGGACAAGAGTCGATGACG (listed as DNA, chemistry not fully specified) [Min9, 32]
[7]
  thermal stability: thermally more stable

## CGUCAUCGGGUUGCUACCCAAGGUCAGGUGACGAUGACG (listed as RNA, chemistry not given here) [GRX8 with QUAD6]
[5]
  need of refolding for maximal activity: do not require refolding for maximal activity
GPC3 [1]
  Ka: 201000 M⁻¹ s⁻¹

## AAGCCATTACCGGGTTGCTACCCAAGGACAAGAGTCGATGATGCTT (listed as DNA, chemistry not fully specified) [Min1, 26]
GPC3 [3]
  binding activity to GPC3^+ HEK293 cells compared to full sequence of clone F14: significantly increased
  GPC3 binding activity (MFI): 11403
GPC3^− HEK293 cells
  GPC3 binding activity (MFI): 579

## CGTCGTCGGGTTGCTACCCAAGGACAAGAGTCGACGACG (listed as DNA, chemistry not fully specified) [Min9.2, 33]
[7]
  thermal stability: thermally more stable

B1: GRX958 (ssRNA)
RNA: GACUAGAUCGGGUUGCUACCCAAGCUCCGGUUCAGAUCGAUGGAGGAUCUAGUC
modifications: fully 2'-OMe
Glypican-3 (GPC3); stem 2 replaced with alternative stem and loop
  Kd: 33.1 nM

## CGGGAGUCCUAGGAAGGACGGGUUGCUACCCAAGUCCCG (ssRNA, fully 2'-OMe) [GRX2102]
Glypican-3 (GPC3); stem 2 closed with 4-base loop, stem 1 open (new 5' and 3' ends)
  Kd: 26.9 nM

## CGUCAUCGGGUUGCUACCCAAGGCACCAGGAGGUGCGAUGACG (ssRNA, fully 2'-OMe) [GRX2101]
Glypican-3 (GPC3); stem 2 extended by 2 bp
  Kd: 29.3 nM

## CGUCAUCGGGUUGCUACCCAAGGCCCAGGAGGGCGAUGACG (ssRNA, fully 2'-OMe) [GRX1187]
Glypican-3 (GPC3); stem 2 extended by 1 bp
  Kd: 64.2 nM

B2: GGGAGACAAGAATAAAGCGAGTTTGAAGCCATTACCGGGTTGCTACCCAAGGACAAGAGTCGATGATGCTTAGCTAG (nucleic acid)
chain: GGGAGACAAGAATAAAGCGAGTTTGAAGCCATTACCGGGTTGCTACCCAAGGACAAGAGTCGATGATGCTTAGCTAG
modifications: listed as DNA, chemistry not fully specified
notes: 12
GPC3 [3]
  GPC3 binding activity (MFI): 5050
GPC3^− HEK293 cells
  GPC3 binding activity (MFI): 1040

— patent publication US20250281621A1, “GPC3 APTAMERS AND VARIANTS AND USE THEREOF” (Guardian Therapeutics, LLC, priority 2020, published 2025)
